This is an account of results in US9066880B2, “Use of dihydrodehydrodiisoeugenol and preparations comprising dihydrodehydrodiisoeugenol” (SYMRISE AG, priority 2010, dated 2015).

Test [1] concerns CCAAT enhancer binding protein α (C/EBPα). Nature of the test: Real Time-PCR, expression of differentiation marker C/EBPα in 3T3-L1-cells. Particulars: fold induction compared to hormone mix stimulation (set equal to one). The test is classed as cell-based, mouse. How it is done:
(§1) 3T3-L1-cells (mouse embryonic fibroblast-like preadipocytes cell line) were propagated in Dulbecco's Modified Eagle Medium (DMEM), enriched with 10% newborn calf serum (CS) at 37° C. and 5% CO2 and seeded in 12-well plates for gene expression analysis. After reaching confluence at day −2, the differentiation was induced by changing medium at day 0 to DMEM with 10% fetal calf serum (FCS) containing a hormone mix (HM) of 1 μg/ml insulin, 0.25 μM dexamethasone (Dex) and 0.5 mM 3-isobutyl-1-methylxanthine (IBMX). Compounds of interest such as compound of formula (I) are applied from day −2 (confluence of the cells) until day 2 using various concentrations. Medium is renewed every other day. At day 2, medium consisting of DMEM, 10% FCS and 1 μg/ml insulin is added. From day 4 on, only DMEM containing 10% FCS is used for further cultivation of cells. […]
(§2) Total RNA from cell culture samples was isolated using RNeasy Total RNA Kits (Qiagen, Hilden; Germany). The RNA concentration and purity was determined photometrically using 260/280 ratios (Biophotometer, Eppendorf, Hamburg, Germany). […] At least three independent experiments were performed with 2 determinations each and the mean value of these was calculated. […] Each sample was analyzed in duplicate employing the universal protocol over 46 cycles. […]

In test [2] the test system is Preadipocyte factor 1 (Pref1). In words: Real Time-PCR, expression of preadipocytes marker Pref-1 in 3T3-L1-cells. Type of test: cell-based, mouse. Particulars: relative to hormone mix stimulation (set equal to one). How it is done: as §1, §2
Test [3] concerns peroxisome proliferator-activated receptor γ2 (PPARγ2). In words: Real Time-PCR, expression of differentiation marker PPARγ2 in 3T3-L1-cells. The test is classed as cell-based, mouse. The conditions noted are these: fold induction compared to hormone mix stimulation (set equal to one). The method, then:
as §1, §2

Another test concerns adiponectin. In words: Real Time-PCR, expression of differentiation marker adiponectin in 3T3-L1-cells. Particulars: fold induction compared to hormone mix stimulation (set equal to one). Type of test: cell-based, mouse. The method, then: as §1, §2
A short description of test [4]: ABTS-Assay (in vitro), anti-oxidative capacity. Particulars: photometric at 734 nm, average of at least 2 independent experiments. How it is done: With the help of the ABTS-assay the anti-oxidative capacity of test substances is measured. 2,2′-azino bis-(3-ethylbenzothiazoline 6-sulfonic acid) (ABTS) is transformed by potassium persulfate into the blue-green radical cation ABTS•+. Through the addition of antioxidants (test substance) the radical cations are reduced and discoloration takes place, which is determined photometrically at 734 nm.
[formula] A test substance=absorption of the wells with test substance • A control=absorption of the wells without test substance
From the inhibition of the radical formation [%] in a series of dilutions of tested samples the IC50 is calculated. This is the concentration at which the radical formation is inhibited by 50%.

For the compound `CCCc1cc(OC)c2c(c1)C(C)C(c1ccc(O)c(OC)c1)O2` (stereo not drawn) [compound of formula (I), 2-Methoxy-4-(7-methoxy-3-methyl-5-propyl-2,3-dihydro-benzofuran-2-yl)-phenol], the “Stimulation of expression at day 2, C/EBPα” value in test [1] (1 μM) is 1.1; in test [1] (10 μM) it was 2.2. Moreover, the entries for the “Relative expression at day 2, Pref-1” value in test [2] (1 μM) and in test [2] (10 μM) were 0.3 and 0.7, respectively. The “Stimulation of expression at day 2, PPARγ2” value in test [3] (1 μM) is reported as 1.0; in test [3] (10 μM), 1.5. Besides, the figures for the “Stimulation of expression at day 2, Adiponectin” value in the test with adiponectin (1 μM) and with adiponectin (10 μM) were 1.4 and 2.2, respectively. Moreover, the “IC50 calculated from the inhibition of radical formation” value in test [4] is 11.0 ppm.
